Experimental data as given in patent US20110237495A1, “FUNCTIONAL METABOLOMICS COUPLED MICROFLUIDIC CHEMOTAXIS DEVICE AND IDENTIFICATION OF NOVEL CELL MEDIATORS” (The Brigham and Women's Hospital, Inc. Corporate Sponsored …, priority 2008, published 2011).
“Also recorded” adds a separate entry of the source.

Assays:
[1] = Zymosan A-induced murine peritonitis: appearance of i.v. labeled omega-3 fatty acids in peritoneal exudates; format: in vivo, male FVB mice; details: for time of maximum level in peritoneal exudate: 1 μg/mouse i.v. just before i.p. zymosan A, GC-MS; for exudate level at 48 h compared with 24 h: 1 μg/mouse i.v., p<0.05
Procedure: Male FVB mice were anesthetized with isoflurane (Hospira Inc, Lake Forest, Ill.). Both 1 μg d5-DHA (4Z,7Z,10Z,13Z,16Z,19Z-docosahexaenoic-21,21,22,22,22-d5 acid: Cayman Chemical, Ann Arbor, Mich.) and 1 μg d5-EPA (5Z,8Z,11Z,14Z,17Z-eicosapentaenoic-19,19′,20,20,20-d5 acid: Cayman Chemical, Ann Arbor, Mich.) in 100 μl of 2% ethanol (v/v) in saline or vehicle alone were administered by bolus tail vein injection. Approximately five minutes later, peritonitis was initiated with intraperitoneal administration of 1 mg of zymosan A (Sigma Aldrich, St. Louis, Mo.). At indicated time intervals, mice were euthanized with an overdose of isoflurane, and peritoneal exudates were collected by lavage with 5 ml of DPBS without either Ca^2+ or Mg^2+. Exudate cells and supernatants were separated by centrifugation (10 min, 1000 rpm, 4° C.), aliquots of supernatants were collected, and 4 volumes of cold acetone were added to precipitate proteins. Serum albumin and total protein levels were determined^32.
Briefly, FVB mice (6-8 wk) received d5-EPA and d5-DHA i.v. (1 μg/mouse of each) (FIG. 4D, top panel) just before i.p. challenge with zymosan A (1 mg/ml/mouse) (FIG. 4D, middle panel). Peritoneal exudates were collected at 0, 2, 4, 12, 24 and 48 h and taken to solid phase extraction. Eluate fractions were treated with diazomethane and taken to GC-MS. Results represent the mean±SEM from n=3, separate mice. Mass spectra of d5-EPA methyl ester and d5-DHA methyl ester. d5-EPA and d5-DHA were derivatized into methyl esters and submitted to GC-MS for analysis shown in FIGS. 4A-C.
For tracer experiments, mice were fasted overnight (˜18 h) before 500 nCi of [1-^14C]-DHA (docosahexaenoic acid 4,7,10,13,16,19-[1-^14C], American Radiolabeled Chemicals Inc, St. Louis, Mo.) was injected via the tail vein. At indicated time intervals, exudates were collected (vide supra) and the radioactivity was determined using a scintillation counter (Multi-purpose scintillation counter LS6500, Beckman Coulter, Fullerton, Calif.).
Upon collection of peritoneal exudates, 2 volumes of cold methanol and internal standard (500 ng/sample, trans-parinaric acid, Molecular Probe, Eugene, Oreg.) were added to exudates, which were stored at −20° C. for 1 hr. After centrifugation, samples were diluted and applied to C18 cartridge columns (Extract-Clean EV SPE, Alltech, Deerfield, Ill.). Lipids were extracted using hexane and methyl formate and each fraction was collected and its unesterified fatty acids converted to corresponding methyl ester using diazomethane treatment^34. The esters were suspended in hexane, and then injected in GC-MS. Electron-impact GC-MS was carried out using an HP 6890 GC system with HP5973 Mass Selective Detector (Hewlett-Packard) equipped with an HP-5MS capillary column (0.25 mm ID×30 m, 0.25 μm, Agilent Technologies Inc., Wilmington, Del.) operating at a mass range from m/z 70 to 800. The ionization voltage was 70 eV and the ion source temperature was 230° C. Chromatography was carried out using a column temperature maintained at 150° C. for 2 min and then programmed to increase 10° C./min up to 230° C., 5° C./min up to 280° C., and then maintained at 280° C. for 10 min. EPA and DHA were separated and the area beneath each chromatographic peak of their deuterium labels was obtained by integration using a Chemstation integrator Version D.02.00.275 (Agilent Technologies Inc). […] The inventors selected the ω-3 ion ((CH)3CH2(CH)2CD2CD3=113) for both d5-EPA (FIG. 4A) and d5-DHA (FIG. 4B) methyl ester and M^+(290) for methyl parinate (FIG. 4C). Identification was conducted by examining and retention times as in FIGS. 4A-C (d5-EPA-methyl ester: 11.7 min FIG. 4A, inset, methyl-parinarate; 13.1 min (FIG. 4C, and d5-DHA; 13.9 min, FIG. 4B, inset). Calibration curves were obtained for each: d5-EPA; y=0.0016x+0.0313 (r^2=0.9954, 50-500 ng/ml), d5-DHA; y=0.0015x-0.0524 (r^2=0.9809, 50-500 ng/ml). […]

[2] = system: leukocyte infiltration in lung tissues; test: Hind-limb ischemia-reperfusion-induced second-organ (lung) injury, lung MPO by ELISA; format: in vivo, mice; details: for percent reduction of MPO found in lungs (FIG. 11), mean±SEM: 1 μg i.v. in vehicle, ischemia-reperfusion
Procedure: To identify the effects of the resolvins and protectins on inflammation resolution, ischemia-reperfusion induced second-organ injury experiments were designed and are illustrated in FIGS. 7A-D. Mice were anesthetized by intraperitoneal injection of pentobarbital (80 mg kg^−1, Nembutal sodium solution NDC 0074-3778-04). Hind-limb ischemia was initiated using tourniquets consisting of a rubber band placed on each hind limb as in ref.^35. Mice were subjected to hind limb ischemia for 1 h, after which the tourniquets were removed to initiate reflow-reperfusion. Resolvins, related compounds and analogs were each administered at 1 μg/mouse (i.e., DHA, RvD1, RvD1 methyl ester, 17-(R/S)-methyl-RvD1 methyl ester, RvE1, or 19-p-fluorophenoxy-RvE1 methyl ester) in vehicle (5 μl ethanol in 120 μl sterile saline) or vehicle alone. They were administered intravenously to the tail vein ˜5 min before the start of the reperfusion period. At the end of this reperfusion period (2 h), the mice were euthanized with an overdose of anesthetic and the lungs were quickly harvested, frozen in liquid nitrogen, and stored at −80° C. The right lungs were homogenized from individual mice and centrifuged, and the tissue levels of myeloperoxidase (MPO) (a leukocyte marker enzyme) in the resulting supernatants, for each experimental protocol, were determined using a mouse MPO enzyme-linked immunosorbent assay (Hycult biotechnology, Cell Sciences, Uden, The Netherlands).
Briefly, as illustrated in the time-course shown in FIG. 7A, hind-limb ischemia was induced in mice by creating tourniquets using a rubber band on each hind limb. After 1 h, the tourniquets were removed and reperfusion ensued. Test compounds (1 μg of DHA, RvD1, RvE1) in vehicle were administered intravenously 5 min before the start of the reperfusion period. At the end of the reperfusion period (2 h), lungs were collected and MPO concentrations were determined by ELISA. FIGS. 7B and C are representative images from histological analysis. FIG. 9B is a photomicrograph showing a hematoxylin/eosin-stained lung from ischemia/reperfusion second organ injury (control). […] Mean±SEM (n=3-5, control; n=12).
Ischemia/reperfusion is a well-appreciated pathophysiologic mechanism of organ injury and local tissue damage that can be initiated by excessively activated PMN. This system in the mouse, models the second organ injury observed in humans following tourniquet release of vessels in surgery involving, for example, extremities^41, 42. Remote or second organ injury can also occur when blood vessels are occluded, or during certain surgical procedures that create local ischemia and remote organ injury that has many features of rapid, acute inflammation and tissue damage^35. On release of the tourniquet occlusion, reflow is initiated and activated PMN rapidly infiltrate secondary organs, causing damage^35. Here, the inventors evaluated RvD1 in a remote organ injury system, i.e., hind-limb ischemia/reperfusion, to assess whether RvD1's ability to inhibit PMN migration, in vitro, in microchambers (FIGS. 8A-C, 9-11) can be predictive of their effect to reduce PMN mediated tissue and organ damage in vivo. […] The extent of lung tissue injury is associated with PMN activation and organ infiltration^35.

human PMN = test: Microfluidic chemotaxis device: PMN chemotaxis in IL-8 gradient; format: cell-based; details: 10 nM (DHA equimolar), PMN captured on P-selectin from a drop of whole blood, n=12
Source text: A new microvolume chemotaxis device was designed using polyethylene glycol (PEG) that allows testing the chemotactic function of neutrophils and their responses to these novel lipid mediators immediately after being separated from whole blood within the device. One exemplary embodiment of the device is illustrated in FIGS. 8A-C. In this embodiment, the microvolume chemotaxis device with microstructured valves was fabricated using “lab-on-chip” microfabrication technologies^36. Briefly, two silicon wafers were coated with a 50-μm-thick layer of SU8 photoresist (MicroChem, Newton, Mass.). After exposure to UV light through a mylar mask in a mask, aligner and development following manufacturer recommendations, 50 μm-tall features were produced on top of the silicon wafers. Subsequently, poly (dimethylsiloxane) (PDMS, Dow Corning, Midland, Mich.) was prepared by mixing two components in 10:1 ratio, as recommended by the manufacturer. […]
After assembly, different sections of the device were chemically modified for specific functionalities. […] The surface of the chemotaxis chamber, where neutrophils were captured and assessed for their chemotactic responses, were modified by physical adsorption of P-selectin (10 ng/mL for 30 minutes, R&D Systems, Minneapolis, Minn.) immediately before use. […]

Row | SMILES | percent reduction of MPO found in lungs (FIG. 11), mean±SEM [2] | time of maximum level in peritoneal exudate [1] | exudate level at 48 h compared with 24 h [1] | further results
1 | CC/C=C\C/C=C\C/C=C\C/C=C\C/C=C\C/C=C\CCC(=O)O [^14C-DHA, docosahexaenoic acid 4,7,10,13,16,19-[1-^14C]] |  |  |  | time at which 14C label reached maximal levels in exudate ([1]; 500 nCi i.v., mice fasted overnight, scintillation counting): 1 h; effect on leukocyte trafficking (FACS analysis of exudates) ([1]; tracer levels i.v.): did not reduce leukocyte trafficking
2 | CC/C=C\CC(C)(O)/C=C/C=C\C=C\C=C\[C@@H](O)[C@@H](O)C/C=C\CCC(=O)OC (mixture of isomers) [17-(R/S)-methyl-RvD1-Me, 17-(R/S)-methyl-RvD1 carboxymethyl ester] | 29.3 ±6.4% |  |  | 
3 | [2H]C([2H])([2H])C([2H])([2H])/C=C\C/C=C\C/C=C\C/C=C\C/C=C\C/C=C\CCC(=O)O [d5-DHA, 4Z,7Z,10Z,13Z,16Z,19Z-docosahexaenoic-21,21,22,22,22-d5 acid] |  | 2 h | significantly greater than at 24 h | 
4 | [2H]C([2H])([2H])C([2H])([2H])/C=C\C/C=C\C/C=C\C/C=C\C/C=C\CCCC(=O)O [d5-EPA, 5Z,8Z,11Z,14Z,17Z-eicosapentaenoic-19,19′,20,20,20-d5 acid] |  | 4 h | significantly greater than at 24 h | 
5 | CC/C=C\C[C@H](O)/C=C/C=C\C=C\C=C\[C@@H](O)[C@@H](O)C/C=C\CCC(=O)OC [RvD1-Me, RvD1 carboxymethyl ester] | 22.9 ±6.8% |  |  | 
6 | CC/C=C\C[C@H](O)/C=C/C=C\C=C\C=C\[C@@H](O)[C@@H](O)C/C=C\CCC(=O)O [RvD1, 7S,8R,17S-trihydroxy-4Z,9E,11E,13Z,15E,19Z-docosahexaenoic acid] |  |  |  | reduction of lung MPO concentration (FIG. 7D), mean±SEM ([2]; 1 μg i.v. 5 min before reperfusion, lungs collected after 2 h reperfusion): 47.5±2.4; reduction of leukocyte infiltration ([2]; 1 μg/mouse, ischemia/reperfusion injury): ~50%; effect on PMN migration (chemotaxis) in IL-8 gradient (human PMN): essentially completely stop PMN movements; also recorded: chemotaxis immediately ceased
